Source: US20220380801A1, “TRIPARTITE SYSTEMS FOR PROTEIN DIMERIZATION AND METHODS OF USE” (priority 2019, published 2022)

How the values were obtained:
MED18852 expression = test: Transcriptional regulation assay, antibody (MED18852) expression; type: cell-based, human; conditions: DBD-PRSIM_23 (three tandem copies); 48 hours after simeprevir
Source text: The DNA sequence encoding MED18852 (SEQ ID NO: 237 and SEQ ID NO: 238, separated by an internal ribosome entry site (IRES) sequence) was purchased as a as a DNA string from GeneArt and cloned into the pZFHD1-2 vector (Takara) downstream of the ZFHD1 inducible promoter using Gibson assembly cloning. The nucleotide sequence of the final construct was confirmed by sequencing.
For the quantification of antibody expression (MED18852) utilising the transcriptional regulation assay, the cells were co-transfected with a pHet-Act1-2 plasmid (containing the HCV NS3/4A PR (S139A):PRSIM_23) and a pZFHD1 plasmid (encoding MED18852); 24 hours later wells were treated with different concentrations of simeprevir. Antibody concentration was determined in the supernatants 48 hours post the addition of simeprevir using MSD kit (Singleplex Human/NHP IgG Isotyping Kit (Mesoscale).

[1] = system: HCV NS3/4A PR (S139A):PRSIM_23; test: HTRF complex formation with alternative HCV PR inhibitors; type: binding, Hepatitis C virus subtype 1a; conditions: simeprevir substituted with alternative inhibitor
Experimental: (§1) scFv and Tn3 PRSIM binding molecules that were selective for the HCV NS3/4A PR (S139A) were identified in homogeneous time-resolved fluorescence (HTRF®) assays run in parallel to measure binding in the presence and absence of simeprevir. HCV NS3/4A PR (S139A), and serial dilutions of purified PRSIM binding molecules, were prepared in assay buffer (PBS containing 0.4 M potassium fluoride and 0.1% BSA). Streptavidin cryptate (Cisbio) was pre-mixed with either anti-FLAG XL665 (to detect the Tn3 molecules) or anti-c-myc XL665 (to detect the scFv molecules) in assay buffer. For each assay 2.5 μl of sample titration was added to 2.5 μl HCV NS3/4A PR (S139A) and 2.5 μl of pre-mixed detection reagents. Either 2.5 μl simeprevir or 2.5 μl of a DMSO blank were also added to each well. […] Assay plates were incubated overnight at 4° C., prior to reading the time resolved fluorescence at 620 nm and 665 nm emission wavelengths using a PerkinElmer Envision plate reader. Data was analysed by calculating % Delta F values for each sample. Delta F was determined according to equation 1.
(§2) There are several small molecule inhibitors that are known to bind the HCV NS3/4A protease and have been approved for human use. A panel of such small molecules were assessed for their ability to induce complex formation between HCV NS3/4A PR (S139A) and PRSIM_23 or PRSIM_57. […]

[2] = system: HCV NS3/4A PR (S139A):PRSIM_57; test: as above; type: binding, Hepatitis C virus subtype 1a; conditions: simeprevir substituted with alternative inhibitor
Experimental: as §1, §2

[3] = system: HEK293 cells stably expressing the PRSIM-based kill switch; test: Kill switch cell viability (phase contrast); type: cell-based, human; conditions: 100 nM simeprevir
Experimental: Lentiviral particles encoding the kill switch fusion protein (SEQ ID NO: 223) or kill switch S196A mutant fusion protein (SEQ ID NO: 230) were generated using pPACKH1 HIV lentiviral packaging kit (Systems Bioscience), according to manufacturer's instructions. HEK293 cells were transduced for 24 h in the presence of 8 μg/ml polybrene after which cells were changed into fresh growth medium (DMEM+10% foetal bovine serum+1% Non-essential amino acids). 24 h later transduced cells were selected by addition of 2 μg/ml puromycin for 5 days. Before functional testing, transduced cell pools were FACS sorted based on GFP fluorescence to isolate high expressing cell line pools and single cell clones.
HEK293, HCT116 or HT29 cells stably expressing the PRSIM-based kill switch fusion protein (SEQ ID NO: 223) or HEK293 cells stably expressing the PRSIM kill switch S196A mutant fusion protein (SEQ ID NO: 230) were plated onto collagen-coated 96-well plates and 24 h later treated with 100 nM simeprevir. Phase contrast images were acquired at various timepoints using 10× or 20× objectives on an Incucyte Zoom (EssenBioscience).

[4] = system: Caspase 3 activity in kill switch-transduced HCT116 cells; test: Kill switch Caspase 3 functional assay; type: cell-based, human; conditions: 10 nM simeprevir, relative to non-transduced cells
Experimental: (§3) HCT116 and HT29 transduced cells were generated following the same protocol with exception of using McCoy's 5A medium+10% foetal bovine serum as growth medium, supplemented with 2 μg/ml puromycin for selection of transduced cells.
(§4) Functional Caspase 9 activates Caspase 3, and this proteolytic activity can be determined using cleavage of non-fluorescent substrate DEVD-AMC into cleavage products DEVD and fluorescent AMC, such that AMC fluorescence signal at 430 nm is proportional to Caspase 3 activity. For the Caspase 3 assay, cells were plated in duplicate onto 6 well tissue-culture treated plates. 24 h later, one of the duplicate wells was treated with 10 nM simeprevir for 3 h. Cells lysates were analysed in triplicate using a Caspase 3 assay from BD Biosciences according to manufacturer's instruction with the modification that total protein input was normalised to 50 μg by BCA assay (LifeTechnologies). Fluorescence was determined on an Envision plate reader (PerkinElmer), Ex: 380 nm, Em: 430 nm. For quantification, RFU (raw fluorescence value) for wells that contained only the assay substrate were subtracted from all RFU derived from assay samples. Results were normalised to non-transduced, simeprevir-treated cells. Analysis was performed in Prism (GraphPad) using a One-Way-Anova followed by multiple comparisons.

[5] = system: Caspase 3 activity in kill switch-transduced HT29 cells; test: Kill switch Caspase 3 functional assay; type: cell-based, human; conditions: 10 nM simeprevir, relative to non-transduced cells
Experimental: as §3, §4

Structure (SMILES): COc1ccc2c(O[C@@H]3C[C@H]4C(=O)N[C@]5(C(=O)NS(=O)(=O)C6CC6)C[C@H]5/C=C\CCCCN(C)C(=O)[C@@H]4C3)cc(-c3nc(C(C)C)cs3)nc2c1C [simeprevir]
- expression of MED18852 (MED18852 expression): dependent on the dose of simeprevir
- induction of complex formation [1]: induction of complex formation was specific for simeprevir
- induction of complex formation [2]: induction of complex formation was specific for simeprevir
- cell killing ([3]; kill switch S196A): rapid cell killing in a timeframe comparable to the wt kill switch
- cell death ([3]; wt kill switch): rapid cell death
- Caspase 3 activity [4]: significantly (p<0.0001) up-regulated
- Caspase 3 activity [5]: significantly (p<0.0001) up-regulated
